Source: patent US9981909B2 (Janssen Pharmaceutica NV, priority 2008, dated 2018)

Assays:
[1] = target: rat 5-HT7 receptor (Rattus norvegicus (Rat), UniProt P32305); test: r5-HT7 binding assay, competitive radioligand binding with [3H]5-CT; conditions: rat 5-HT7, HEK-293 membranes
In short: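 Membranes from HEK-293 cells recombinantly expressing rat 5-HT7 were used for competitive radioligand binding with [3H]5-CT, with radioactivity read-out and Ki values derived. In the functional cAMP immunoassay, stably transfected HEK-293 cells were pre-incubated with compound for 10 minutes, challenged with 100 nM 5-CT for 20 minutes, then lysed.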

[2] = target: h5HT2A (Homo sapiens (Human), UniProt P28223); test: h5HT2A binding
Chain of h5HT2A (P28223 whole entry): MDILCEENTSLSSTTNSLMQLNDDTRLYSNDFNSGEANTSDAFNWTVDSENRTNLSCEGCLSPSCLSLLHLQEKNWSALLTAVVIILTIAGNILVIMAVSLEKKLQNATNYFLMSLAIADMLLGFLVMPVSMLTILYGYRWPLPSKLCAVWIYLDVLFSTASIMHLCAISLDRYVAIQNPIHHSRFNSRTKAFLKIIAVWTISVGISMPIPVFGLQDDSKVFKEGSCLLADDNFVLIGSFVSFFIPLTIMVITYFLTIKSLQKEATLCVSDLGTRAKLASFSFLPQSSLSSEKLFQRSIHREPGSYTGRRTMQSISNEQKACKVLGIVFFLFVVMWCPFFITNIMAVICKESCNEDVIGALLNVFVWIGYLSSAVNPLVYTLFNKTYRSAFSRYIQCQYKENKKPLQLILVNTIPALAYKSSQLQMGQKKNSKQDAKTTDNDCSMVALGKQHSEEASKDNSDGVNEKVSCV

[3] = target: h5HT2B (Homo sapiens (Human), UniProt P41595); test: h5HT2B binding
Chain of h5HT2B (P41595 whole entry): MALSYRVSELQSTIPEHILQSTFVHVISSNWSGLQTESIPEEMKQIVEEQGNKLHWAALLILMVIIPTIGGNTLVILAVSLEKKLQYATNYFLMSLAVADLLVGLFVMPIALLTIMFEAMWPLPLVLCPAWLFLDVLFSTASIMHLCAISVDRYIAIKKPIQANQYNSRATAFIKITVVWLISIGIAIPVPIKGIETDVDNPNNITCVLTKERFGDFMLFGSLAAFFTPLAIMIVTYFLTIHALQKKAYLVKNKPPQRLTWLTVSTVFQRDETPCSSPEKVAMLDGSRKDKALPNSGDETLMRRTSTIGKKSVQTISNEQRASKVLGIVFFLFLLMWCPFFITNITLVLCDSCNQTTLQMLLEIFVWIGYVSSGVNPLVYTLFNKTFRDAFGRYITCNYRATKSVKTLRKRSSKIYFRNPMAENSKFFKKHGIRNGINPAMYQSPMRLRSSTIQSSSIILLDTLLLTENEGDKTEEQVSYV

[4] = target: h5HT2C (Homo sapiens (Human), UniProt P28335); test: h5HT2C binding
Chain of h5HT2C (P28335 33-458): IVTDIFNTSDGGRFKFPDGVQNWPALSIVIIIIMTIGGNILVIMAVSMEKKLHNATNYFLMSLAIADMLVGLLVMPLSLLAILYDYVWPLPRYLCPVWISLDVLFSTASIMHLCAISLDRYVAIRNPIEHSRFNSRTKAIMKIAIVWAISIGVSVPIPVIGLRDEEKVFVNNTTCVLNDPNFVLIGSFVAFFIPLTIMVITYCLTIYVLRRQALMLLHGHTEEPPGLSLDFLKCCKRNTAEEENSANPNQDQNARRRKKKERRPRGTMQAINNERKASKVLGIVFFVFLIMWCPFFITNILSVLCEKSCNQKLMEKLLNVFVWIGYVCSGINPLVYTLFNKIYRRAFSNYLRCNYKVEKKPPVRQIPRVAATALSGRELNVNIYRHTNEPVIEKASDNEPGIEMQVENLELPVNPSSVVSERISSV

[5] = target: human SERT (Homo sapiens (Human), UniProt P31645); test: human SERT binding assay with [3H]-citalopram on HEK-293 membranes; conditions: read-out: hSERT binding Ki
Chain of human SERT (P31645 whole entry): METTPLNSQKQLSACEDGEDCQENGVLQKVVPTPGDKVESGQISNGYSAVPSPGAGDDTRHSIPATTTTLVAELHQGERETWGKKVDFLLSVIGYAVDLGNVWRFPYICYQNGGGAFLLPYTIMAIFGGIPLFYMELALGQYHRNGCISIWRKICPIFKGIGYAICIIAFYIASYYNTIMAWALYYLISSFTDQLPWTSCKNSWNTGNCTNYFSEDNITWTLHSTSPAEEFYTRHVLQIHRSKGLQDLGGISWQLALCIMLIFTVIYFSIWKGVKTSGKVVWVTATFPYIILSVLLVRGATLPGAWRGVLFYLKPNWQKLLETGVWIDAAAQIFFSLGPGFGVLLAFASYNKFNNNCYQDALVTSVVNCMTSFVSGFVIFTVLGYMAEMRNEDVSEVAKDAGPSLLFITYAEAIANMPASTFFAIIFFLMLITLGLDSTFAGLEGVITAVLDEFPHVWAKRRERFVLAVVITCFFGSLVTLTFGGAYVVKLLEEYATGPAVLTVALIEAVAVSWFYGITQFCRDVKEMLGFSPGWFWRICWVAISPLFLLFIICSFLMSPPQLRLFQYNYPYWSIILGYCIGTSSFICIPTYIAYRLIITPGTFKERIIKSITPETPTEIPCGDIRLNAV

Chain of rat 5-HT7 receptor (P32305 1-435): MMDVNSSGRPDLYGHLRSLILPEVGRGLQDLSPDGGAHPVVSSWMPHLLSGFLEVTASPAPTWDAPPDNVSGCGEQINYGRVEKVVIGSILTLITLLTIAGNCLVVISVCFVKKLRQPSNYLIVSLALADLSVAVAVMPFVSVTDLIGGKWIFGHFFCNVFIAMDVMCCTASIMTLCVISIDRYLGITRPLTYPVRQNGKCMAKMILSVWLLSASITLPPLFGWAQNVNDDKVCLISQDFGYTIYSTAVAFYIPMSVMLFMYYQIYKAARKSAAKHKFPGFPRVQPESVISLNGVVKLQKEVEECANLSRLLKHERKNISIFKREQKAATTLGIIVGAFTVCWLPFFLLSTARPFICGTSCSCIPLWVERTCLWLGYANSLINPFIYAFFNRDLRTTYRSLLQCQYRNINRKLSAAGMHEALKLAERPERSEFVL

| SMILES | Ki [1] [nM] | Ki [2] [nM] | Ki [3] [nM] | Ki [4] [nM] | Ki [5] [nM] |
| --- | --- | --- | --- | --- | --- |
| Cc1ccc(Oc2cc(Cl)ccc2O[C@@H]2CCNC2)cc1 [Example 267, (R)-3-(4-Chloro-2-p-tolyloxy-phenoxy)-pyrrolidine] | 2300 | 120 | 65 | 210 |  |
| Fc1ccc(Oc2cc(Cl)ccc2O[C@@H]2CCNC2)cc1 [Example 270, (R)-3-[4-Chloro-2-(4-fluoro-phenoxy)-phenoxy]-pyrrolidine] | 1000 | 120 | 75 | 240 |  |
| Clc1ccc(Oc2cc(Cl)ccc2O[C@H]2CCNC2)cc1 [Example 275, (S)-3-[4-Chloro-2-(4-chloro-phenoxy)-phenoxy]-pyrrolidine] | > 10000 | 530 | 910 | 220 |  |
| CC1(Oc2cc(Br)ccc2OCCc2ccccc2)CNC1 [Example 215, 3-(5-Bromo-2-phenethyloxy-phenoxy)-3-methyl-azetidine] | 11 | 6 | 17 | 26 | 44 |
| Cc1ccccc1Oc1cc(Cl)ccc1O[C@H]1CCNC1 [Example 272, (S)-3-(4-Chloro-2-o-tolyloxy-phenoxy)-pyrrolidine] | > 10000 | 220 | 310 | 330 |  |
| Fc1ccc(Oc2cc(Cl)ccc2O[C@H]2CCNC2)cc1 [Example 269, (S)-3-[4-Chloro-2-(4-fluoro-phenoxy)-phenoxy]-pyrrolidine] | > 10000 | 190 | 500 | 400 |  |
